This is an account of results in patent US8247612B2, “Organic sulfur compound and its use for controlling harmful arthropod” (Sumitomo Chemical Company, Limited, priority 2007, dated 2012).

Holding throughout (type): in vivo
One assay has as its system Culex pipiens pallens. Kind of assay: Test Example 4: larvae in treated water, death rate of Culex pipiens pallens. The settings on record: 24 h, active ingredient concentration 3.5 ppm in water, 20 last-instar larvae, after one day. The procedure: Preparations of the present compounds (1), (2), (3), (4), (5), (6), (9), (10), (11), (12), (14), (15), (16), (17), (19), (20), (22), (23), (24), (26), (27), (28), (29), (30) and (31) obtained according to Formulation Example 36 were diluted so that the active ingredient concentration was 500 ppm to obtain test solutions. To 100 mL of ion-exchanged water, 0.7 ml of the test solution was added (active ingredient concentration: 3.5 ppm). Into the solution, 20 last-instar larvae of Culex pipiens pallens were released. After one day, the number of surviving Culex pipiens pallens was examined and the death rate of the pest was calculated. As a result, in treatments with the present compounds (1), (2), (3), (4), (5), (6), (9), (10), (11), (12), (14), (15), (16), (17), (19), (20), (22), (23), (24), (26), (27), (28), (29), (30) and (31), the death rate of the pest was 90% or more.

In a further assay the test system is Musca domestica. Briefly: Test Example 2: treated filter paper with sucrose bait, death rate of Musca domestica. To be noted: 500 ppm test solution, 0.7 ml on filter paper, 10 female imagoes, after 24 hours. As for the experimental part: Preparations of the present compounds (2), (3), (5), (6), (9), (10), (11), (12), (13), (14), (15), (16), (17), (19), (20), (24), (25), (26), (28), (29), (30) and (31) obtained according to Formulation Example 36 were diluted so that the active ingredient concentration was 500 ppm to obtain test solutions.
A filter paper having a diameter of 5.5 cm was spread on the bottom of a polyethylene cup having a diameter of 5.5 cm and 0.7 ml of the test solution was added dropwise onto the filter paper. As a bait 30 mg of sucrose was uniformly placed on the filter paper. Into the polyethylene cup, 10 female imagoes of Musca domestica were released and the cup was sealed with a lid. After 24 hours, the number of surviving Musca domestica was examined and the death rate of the pest was calculated.
As a result, in treatments with the present compounds (2), (3), (5), (6), (9), (10), (11), (12), (13), (14), (15), (16), (17), (19), (20), (24), (25), (26), (28), (29), (30) and (31), the death rate of the pest was 70% or more.

The test system of the next assay is Blattalla germanica. Briefly: Test Example 3: treated filter paper with sucrose bait, death rate of Blattalla germanica. The settings on record: 144 h; 500 ppm test solution, 0.7 ml on filter paper; 2 male imagoes; after 6 days. As for the experimental part:
Preparations of the present compounds (2), (3), (5), (6), (10), (11), (12), (14), (15), (16), (17), (19), (20), (24), (25), (26), (29), (30) and (31) obtained according to Formulation Example 36 were diluted so that the active ingredient concentration was 500 ppm to obtain test solutions.
A filter paper having a diameter of 5.5 cm was spread on the bottom of a polyethylene cup having a diameter of 5.5 cm and 0.7 ml of the test solution was added dropwise onto the filter paper. As a bait 30 mg of sucrose was uniformly placed on the filter paper. Into the polyethylene cup, 2 male imagoes of Blattalla germanica were released and the cup was sealed with a lid. After 6 days, the number of surviving Blattalla germanica was examined and the death rate of the pest was calculated.
As a result, in treatments with the present compounds (2), (3), (5), (6), (10), (11), (12), (14), (15), (16), (17), (19), (20), (24), (25), (26), (29), (30) and (31), the death rate of the pest was 100%.

Bounds are passed on as bounds.

Broadly, the pest or weed control is the degree to which the test organism was suppressed or injured, in per cent. Low readings indicate a weak effect, high ones a strong effect. Regarding `COC(=O)C(CCC(C)C(F)(F)F)S(=O)(=O)CCC(F)(F)F` (stereo not drawn) [present compound (1), methyl 6,6,6-trifluoro-5-methyl-2-(3,3,3-trifluoropropylsulfonyl)hexanoate], the pest or weed control at 3.5 ppm in the assay on Culex pipiens pallens is no less than 90%.
For `COC(=O)C(Cl)(CCC(C)C(F)(F)F)S(=O)(=O)CCC(F)(F)F` (stereo not drawn) [present compound (2), methyl 2-chloro-6,6,6-trifluoro-5-methyl-2-(3,3,3-trifluoropropylsulfonyl)hexanoate], the figures for the pest or weed control at 500 ppm with Musca domestica and in the assay with Blattalla germanica were no less than 70% and 100%, respectively. Moreover, in the assay with Culex pipiens pallens, the pest or weed control at 3.5 ppm is no less than 90%.
In turn, `CCC(CCC(C(=O)OC)S(=O)(=O)CCC(F)(F)F)C(F)(F)F` (stereo not drawn) [present compound (4), methyl 5-trifluoromethyl-2-(3,3,3-trifluoropropylsulfonyl)heptanoate] yielded a pest or weed control at 3.5 ppm in the assay on Culex pipiens pallens of no less than 90%.
Take `CCC(CCC(Cl)(C(=O)OC)S(=O)(=O)CCC(F)(F)F)C(F)(F)F` (stereo not drawn) [present compound (5), methyl 2-chloro-5-trifluoromethyl-2-(3,3,3-trifluoropropylsulfonyl)heptanoate]: the pest or weed control at 500 ppm in the assay on Musca domestica is no less than 70%; in the assay on Blattalla germanica, 100%. Further, the pest or weed control at 3.5 ppm in the assay with Culex pipiens pallens is no less than 90%.
`CCC(CCC(Cl)(C(N)=O)S(=O)(=O)CCC(F)(F)F)C(F)(F)F` (stereo not drawn) [present compound (6), 2-chloro-5-trifluoromethyl-2-(3,3,3-trifluoropropylsulfonyl)heptanamide]: the values for the pest or weed control at 500 ppm in the assay on Musca domestica and in the assay on Blattalla germanica were no less than 70% and 100%, respectively. This compound also returned a pest or weed control at 3.5 ppm with Culex pipiens pallens of no less than 90%.
The compound `CC(C)(C)C(CCC(Cl)(C(N)=O)S(=O)(=O)CCC(F)(F)F)C(F)(F)F` (stereo not drawn) [present compound (9), 2-chloro-6,6-dimethyl-5-trifluoromethyl-2-(3,3,3-trifluoropropylsulfonyl)heptanamide] came in with a pest or weed control at 500 ppm with Musca domestica of no less than 70%. This compound displayed a pest or weed control at 3.5 ppm with Culex pipiens pallens of no less than 90%.
With `CCC(CCC(F)(C(=O)OC)S(=O)(=O)CCC(F)(F)F)C(F)(F)F` (stereo not drawn) [present compound (11), methyl 2-fluoro-5-(trifluoromethyl)-2-(3,3,3-trifluoropropylsulfonyl)heptanoate], the values for the pest or weed control at 500 ppm in the assay on Musca domestica and with Blattalla germanica were no less than 70% and 100%, respectively. The same compound displayed a pest or weed control at 3.5 ppm in the assay on Culex pipiens pallens of no less than 90%.
`CCC(CCC(F)(C(N)=O)S(=O)(=O)CCC(F)(F)F)C(F)(F)F` (stereo not drawn) [present compound (12), 2-fluoro-5-(trifluoromethyl)-2-(3,3,3-trifluoropropylsulfonyl)heptanamide]: the pest or weed control at 500 ppm is no less than 70% in the assay on Musca domestica and 100% with Blattalla germanica. Also, in the assay on Culex pipiens pallens, the pest or weed control at 3.5 ppm is no less than 90%.
In the case of `CCC(CCC(C)(C(N)=O)S(=O)(=O)CCC(F)(F)F)C(F)(F)F` (stereo not drawn) [present compound (13), 2-methyl-5-(trifluoromethyl)-2-(3,3,3-trifluoropropylsulfonyl)heptanamide], in the assay with Musca domestica, the pest or weed control at 500 ppm was no less than 70%.
As for `COC(=O)C(Cl)(CCC(C(C)C)C(F)(F)F)S(=O)(=O)CCC(F)(F)F` (stereo not drawn) [present compound (19), methyl 2-chloro-6-methyl-5-(trifluoromethyl)-2-(3,3,3-trifluoropropylsulfonyl)heptanoate], the pest or weed control at 500 ppm in the assay on Musca domestica was no less than 70%; in the assay on Blattalla germanica, 100%. This compound also showed a pest or weed control at 3.5 ppm in the assay with Culex pipiens pallens of no less than 90%.
With `CC(C)C(CCC(Cl)(C(N)=O)S(=O)(=O)CCC(F)(F)F)C(F)(F)F` (stereo not drawn) [present compound (20), 2-chloro-6-methyl-5-(trifluoromethyl)-2-(3,3,3-trifluoropropylsulfonyl)heptanamide], the pest or weed control at 500 ppm is no less than 70% with Musca domestica and 100% in the assay with Blattalla germanica. Moreover, the pest or weed control at 3.5 ppm in the assay with Culex pipiens pallens is no less than 90%.
As to `CCCC(CCC(Cl)(C(=O)OC)S(=O)(=O)CCC(F)(F)F)C(F)(F)F` (stereo not drawn) [present compound (22), methyl 2-chloro-5-(trifluoromethyl)-2-(3,3,3-trifluoropropylsulfonyl)octanoate], the pest or weed control at 3.5 ppm in the assay with Culex pipiens pallens is no less than 90%.
`CCCC(CCC(Cl)(C(N)=O)S(=O)(=O)CCC(F)(F)F)C(F)(F)F` (stereo not drawn) [present compound (23), 2-chloro-5-(trifluoromethyl)-2-(3,3,3-trifluoropropylsulfonyl)octanamide] yielded a pest or weed control at 3.5 ppm in the assay with Culex pipiens pallens of no less than 90%.
In the case of `COC(=O)C(CCC(OC)C(F)(F)F)S(=O)(=O)CCC(F)(F)F` (stereo not drawn) [present compound (24), methyl 6,6,6-trifluoro-5-methoxy-2-(3,3,3-trifluoropropylsulfonyl)hexanoate], the pest or weed control at 500 ppm in the assay with Musca domestica is no less than 70%; with Blattalla germanica it was 100%. In the assay with Culex pipiens pallens, this compound came in with a pest or weed control at 3.5 ppm of no less than 90%.
For the compound `COC(=O)C(Cl)(CCC(OC)C(F)(F)F)S(=O)(=O)CCC(F)(F)F` (stereo not drawn) [present compound (25), methyl 2-chloro-6,6,6-trifluoro-5-methoxy-2-(3,3,3-trifluoropropylsulfonyl)hexanoate], the results for the pest or weed control at 500 ppm in the assay on Musca domestica and in the assay with Blattalla germanica were no less than 70% and 100%, respectively.
Regarding `COC(CCC(Cl)(C(N)=O)S(=O)(=O)CCC(F)(F)F)C(F)(F)F` (stereo not drawn) [present compound (26), 2-chloro-6,6,6-trifluoro-5-methoxy-2-(3,3,3-trifluoropropylsulfonyl)hexanamide], the pest or weed control at 500 ppm in the assay with Musca domestica is no less than 70%; in the assay with Blattalla germanica, 100%. The pest or weed control at 3.5 ppm in the assay on Culex pipiens pallens was no less than 90%.
For `COC(=O)C(CCC(SC)C(F)(F)F)S(=O)(=O)CCC(F)(F)F` (stereo not drawn) [present compound (27), methyl 6,6,6-trifluoro-5-methylthio-2-(3,3,3-trifluoropropylsulfonyl)hexanoate], in the assay on Culex pipiens pallens, the pest or weed control at 3.5 ppm is no less than 90%.
In the assay on Musca domestica, `COC(=O)C(Cl)(CCC(SC)C(F)(F)F)S(=O)(=O)CCC(F)(F)F` (stereo not drawn) [present compound (28), methyl 2-chloro-6,6,6-trifluoro-5-methylthio-2-(3,3,3-trifluoropropylsulfonyl)hexanoate] returned a pest or weed control at 500 ppm of no less than 70%. The pest or weed control at 3.5 ppm with Culex pipiens pallens is no less than 90%.
For the compound `CSC(CCC(Cl)(C(N)=O)S(=O)(=O)CCC(F)(F)F)C(F)(F)F` (stereo not drawn) [present compound (29), 2-chloro-6,6,6-trifluoro-5-methylthio-2-(3,3,3-trifluoropropylsulfonyl)hexanamide], the values for the pest or weed control at 500 ppm in the assay with Musca domestica and in the assay on Blattalla germanica were no less than 70% and 100%, respectively. The compound also displayed a pest or weed control at 3.5 ppm in the assay on Culex pipiens pallens of no less than 90%.
In the case of `CSC(CCC(C#N)S(=O)(=O)CCC(F)(F)F)C(F)(F)F` (stereo not drawn) [present compound (30), 6,6,6-trifluoro-5-methylthio-2-(3,3,3-trifluoropropylsulfonyl)hexanenitrile], the pest or weed control at 500 ppm with Musca domestica was no less than 70%; in the assay on Blattalla germanica, 100%. In the assay on Culex pipiens pallens, this compound registered a pest or weed control at 3.5 ppm of no less than 90%.
The like results for `CC(CCC(Cl)(C(N)=O)S(=O)(=O)CCC(F)(F)F)C(F)(F)C(F)(F)F` (stereo not drawn) [present compound (31), 2-chloro-6,6,7,7,7-pentafluoro-5-methyl-2-(3,3,3-trifluoropropylsulfonyl)heptanamide] were, in that order, no less than 70%, 100% and no less than 90%.
